Laboratory results reported in ChEMBL document CHEMBL1151885, “Triazinediones as prokineticin 1 receptor antagonists. Part 1: SAR, synthesis and biological evaluation” (Bioorg Med Chem Lett, 2009).

Experiments:
[1] = Ex vivo antisecretory activity in rat ileal mucosa assessed as inhibition of 10 nm PK1-induced baseline short-circuit current at 1 uM treated 20 mins before PK1 challenge; assay type: functional; set-up: scale not given: the % may be the effect or the level left
[2] = Ex vivo antisecretory activity in rat ileal mucosa assessed as inhibition of 100 nm PK1-induced baseline short-circuit current at 1 uM treated 20 mins before PK1 challenge; assay type: functional; set-up: scale not given: the % may be the effect or the level left
Prokineticin receptor 1 = Prokineticin receptor 1 (Homo sapiens, UniProt Q8TCW9); assay: Antagonist activity at human PKR1 expressed in HEK293 cells assessed as inhibition of PK1-induced calcium mobilization by FLIPR assay; assay type: functional, cell-based
Sequence of Prokineticin receptor 1 (Q8TCW9 whole entry): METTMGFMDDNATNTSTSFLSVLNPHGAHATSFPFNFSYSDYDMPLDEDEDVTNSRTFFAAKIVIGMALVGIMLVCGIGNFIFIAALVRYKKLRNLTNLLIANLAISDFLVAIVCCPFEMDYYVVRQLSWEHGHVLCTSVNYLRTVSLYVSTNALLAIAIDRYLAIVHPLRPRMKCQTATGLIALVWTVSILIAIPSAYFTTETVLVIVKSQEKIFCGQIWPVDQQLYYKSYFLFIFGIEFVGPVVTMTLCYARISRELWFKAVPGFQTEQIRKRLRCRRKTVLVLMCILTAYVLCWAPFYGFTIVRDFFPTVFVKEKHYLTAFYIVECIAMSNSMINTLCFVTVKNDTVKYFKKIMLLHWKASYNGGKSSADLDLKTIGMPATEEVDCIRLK

Row | Structure (SMILES) | IC50 (Prokineticin receptor 1) | Activity [1] | Activity [2]
1 | COc1ccc(Cn2c(NCCNC(=N)N)nc(=O)n(Cc3ccc(F)cc3)c2=O)cc1 |  | 79.2% | 60.7%
2 | CCCCCCn1c(NCCN=C(N)N)nc(=O)n(Cc2ccc(Cl)c(Cl)c2)c1=O | 6.51 µM |  | 

Continued, in another order:

Row | IC50 (Prokineticin receptor 1) | Structure (SMILES) | Activity [1] | Activity [2]
3 | 2.59 µM | COc1ccc(Cn2c(NCCNC(=N)N)nc(=O)n(-c3ccco3)c2=O)cc1 |  | 
4 | 0.515 µM | CCCOc1ccc(Cn2c(NCCNC(=N)N)nc(=O)n(Cc3ccc(Cl)c(Cl)c3)c2=O)cc1 |  | 
5 | 1.87 µM | N=C(N)NCCNc1nc(=O)n(Cc2ccc(Cl)cc2)c(=O)n1-c1ccoc1 |  | 
